From patent publication US8754094B2, “Methods for heat shock protein dependent cancer treatment” (The Research Foundation of State University of New York, priority 2007, dated 2014)
Residues, ends and D or L forms follow the SMILES beside them. *: point of attachment. Cbz = O=C(OCc1ccccc1)*

Tests used:
Format in all cases: cell-based, human
RPMI-8226 = assay: Growth inhibition of MM cell line RPMI-8226; conditions: RPMI-8226 compared to NCI-H929
Method: (§1) Viability was estimated according to the following formula: […]
(§2) Control cells were cultured in DMSO.

NCI-H929 = assay: Cell cycle analysis by PI staining and FACS, NCI-H929; conditions: NCI-H929, 10 μM, within 48 h of culture
Method: Cell cycle analysis of control (DMSO-treated) or MAL3-101-treated NCI-H929 (2×10^5) was assessed by PI staining and FACS analysis of samples. Resulting DNA distributions were analyzed for the proportions of cells in G0/G1 and G2/M phases of the cell cycle after subtractive gating of cell doublets and debris as described in G. Anderson, M. Gries, N. Kurihara, T. Honjo, J. Anderson, V. Donnenberg, A. Donnenberg, I. Ghobrial, M. Y. Mapara, D. Stirling, D. Roodman, S. Lentzsch, Thalidomide derivative CC-4047 inhibits osteoclast formation by down-regulation of PU. 1, Blood 107 (2006) 3098-3105, which is incorporated herein by reference.

U266 = assay: Growth inhibition of MM cell line U266; conditions: U266 compared to NCI-H929
Method: as §1, §2

[1] = system: EPCs from multiple myeloma patients; assay: MTS survival assay, endothelial progenitor cells (EPCs) from MM patients; conditions: FIG. 36C
Method: (§3) For endothelial progenitor cells (EPC) outgrowth, bone marrow were further separated using Ficoll-Hypaque (Sigma Chemicals, St Louis, Mo.) density-gradient centrifugation and mononuclear cells were cultured (7×10^6 cells/well) in laminin-coated, 6-well plates (Becton Dickinson Labware, Bedford, Mass.) in EndoCult Basal Medium supplemented with 20% fetal bovine serum (StemCell Technologies, Vancouver, Canada) and antibiotics (100 U/ml penicillin G, 100 μg/ml streptomycin) until confluent. […] Outgrown EPCs were identified by the expression of endothelial and progenitor cell surface markers, including von Willebrand factor (a blood glycoprotein involved in coagulation), vascular endothelial-cadherin (where cadherins are a class of transmembrane proteins), vascular endothelial growth factor receptor-2, CD34, and CD133, as well as the absence of the MM marker CD38, determined by immunocytochemistry and flow cytometry. EPCs were passaged when they were 60-70% confluent by trypsin-ethylenediaminetetraacetic acid (EDTA) treatment (Invitrogen, Carlsbad, Calif.) onto 96-well culture plates (BD Biosciences, San Jose, Calif.). […]

[2] = as above; conditions: human, EPCs of MM patients, FIG. 36C, read-out: reduction of viability of EPCs
Method: as §3

SMILES | sensitivity to MAL3-101-induced growth inhibition (RPMI-8226) | decrease in cells in the G2/M phase (NCI-H929) [fold] | increase in the sub-G0/G1 phase (NCI-H929) [fold] | sensitivity to MAL3-101-induced growth inhibition (U266) | reduction of viability of EPCs [1] [%] | cytotoxicity [2] [%]
CCCCCCN(C(=O)CCCCCN1C(=O)NC(c2ccc(-c3ccccc3)cc2)C(C(=O)OCc2ccccc2)=C1C)C(C(=O)NCCCC)c1ccc(OCC(=O)OC)c(C(=O)OC)c1 (stereo not drawn) [MAL3-101] | less sensitive | 2.5 | ~3 | less sensitive | 10±14 | –
CC(C)C[C@@H](C=O)NC(=O)[C@H](CC(C)C)NC(=O)[C@H](CC(C)C)NC(=O)OCc1ccccc1 [MG-132, reference compound] (Cbz-Leu-Leu-Leu-aldehyde) | – | – | – | – | – | 16 ± 17
